{"source": "patent US6117661A", "about": "“Mutant mono-oxygenase cytochrome P450cam” (BG plc, priority 1995, dated 2000)", "molecules": {"B1": {"name": "C148A: P-450cam surface mutant, cysteine 148 substituted to alanine (protein, UniProt P00183 2-415, looked up, variant C148A)", "Camphor 5-monooxygenase": "TTETIQSNANLAPLPPHVPEHLVFDFDMYNPSNLSAGVQEAWAVLQESNVPDLVWTRCNGGHWIATRGQLIREAYEDYRHFSSECPFIPREAGEAYDFIPTSMDPPEQRQFRALANQVVGMPVVDKLENRIQELACSLIESLRPQGQANFTEDYAEPFPIRIFMLLAGLPEEDIPHLKYLTDQMTRPDGSMTFAEAKEALYDYLIPIIEQRRQKPGTDAISIVANGQVNGRPITSDEAKRMCGLLLVGGLDTVVNFLSFSMEFLAKSPEHRQELIERPERIPAACEELLRRFSLVADGRILTSDYEFHGVQLKKGDQILLPQMLSGLDERENACPMHVDFSRQKVSHTTFGHGSHLCLGQHLARREIIVTLKEWLTRIPDFSIAPGAQIQHKSGIVSGVQALPLVWDPATTKAV"}, "B2": {"name": "C334A: P-450cam surface mutant, cysteine 334 substituted to alanine (protein, UniProt P00183 2-415, looked up, variant C334A)", "Camphor 5-monooxygenase": "B1 Camphor 5-monooxygenase with A148C, C334A"}}, "key": {"P450cam WT": {"biological_target": "T1, P450cam WT (Pseudomonas putida, UniProt P00183)", "T1 construct": "reconstituted with putidaredoxin and putidaredoxin reductase", "experiment": "Product distribution following oxidation of substrates (GC)", "format": "biochemical, P. putida", "settings": "for Products (%) WT: label = product", "procedure": "(§1) A buffered solution (50 mM Tris.HCI, pH 7.4), typically 3 ml in volume, containing 10 uM putidaredoxin, 2 uM putidaredoxin reductase, 1 uM cytochrome P-450cam mono-oxygenase (wild-type or mutant), 200 mM KCI, 50 ug/ml bovine liver catalase (Sigma), and 1 mM target organic compound such as cyclohexylbenzene (added as a 0.1 M stock in ethanol) was preincubated at 30° C. for 5 minutes. The enzymatic reaction was initiated by adding NADH to a total concentration of 2 mM. Further four aliquots of NADH (to increase the NADH concentration by 1 mM each time) were added in intervals of 10 minutes, and 30 minutes into the incubation one aliquot of substrate (to increase the concentration by 1 mM) was also added. The reaction was quenched after 60 minutes by adding 0.5 ml chloroform and vortexing the mixture. The phases were separated by centrifugation (4000 g) at 4° C. The chloroform layer was analyzed by gas chromatography.\n(§2) For many substrate compounds such as cyclohexylbenzene for which not all the P-450cam-mediated oxidation products are commercially available, the chloroform extracts are evaporated to dryness under a stream of nitrogen. The residues were extracted with hexane and the oxidation products separated by high performance liquid chromatography, eluting with a hexane/isopropanol gradient. The purified products were then identified by mass spectroscopy and particularly nuclear magnetic resonance spectroscopy.\n(§3) The NADH concentration can be monitored at 340 nm and, in all cases, more substrates and NADH are added during the incubation."}, "[1]": {"biological_target": "T2, P450cam active site mutant Y96L (also C334A) (Pseudomonas putida, UniProt P00183, C335A/Y97L)", "T2 construct": "reconstituted with putidaredoxin and putidaredoxin reductase", "format": "biochemical, P. putida", "settings": "for Products (%) Y96L: label = product", "procedure": "as §1, §2, §3"}, "[2]": {"biological_target": "T3, P450cam active site mutant F87A-F96G-F193A (Pseudomonas putida, UniProt P00183, C335A/F194A/F88A/Y97G)", "T3 construct": "reconstituted with putidaredoxin and putidaredoxin reductase", "format": "biochemical, P. putida", "settings": "for Products (%) F87A-F96G-F193A: label = product", "procedure": "as §1, §2, §3"}, "[3]": {"biological_target": "T4, P450cam active site mutant Y96V (also C334A) (Pseudomonas putida, UniProt P00183, C335A/Y97V)", "T4 construct": "reconstituted with putidaredoxin and putidaredoxin reductase", "format": "biochemical, P. putida", "settings": "for Products (%) Y96V: label = product", "procedure": "as §1, §2, §3"}, "[4]": {"biological_target": "T5, P450cam active site mutant Y96F (also C334A) (Pseudomonas putida, UniProt P00183, C335A/Y97F)", "T5 construct": "reconstituted with putidaredoxin and putidaredoxin reductase", "format": "biochemical, P. putida", "settings": "for Products(%) Y96F: label = product", "procedure": "as §1, §2, §3"}, "[5]": {"biological_target": "T6, P450cam active site mutant Y96A (also C334A) (Pseudomonas putida, UniProt P00183, C335A/Y97A)", "T6 construct": "reconstituted with putidaredoxin and putidaredoxin reductase", "format": "biochemical, P. putida", "settings": "for Products(%) Y96A: label = product", "procedure": "as §1, §2, §3"}, "Wild type P450cam [6]": {"biological_target": "T7, Wild type P450cam (Pseudomonas putida, UniProt P00183)", "format": "binding, P. putida"}, "P450cam Mutant Y96A": {"biological_target": "P450cam Mutant Y96A (Pseudomonas putida, UniProt P00183, C335A/Y97A)", "format": "binding, P. putida"}, "P-450cam mutant Y96A": {"biological_target": "T8, P-450cam mutant Y96A (Pseudomonas putida, UniProt P00183, Y97A)", "T8 construct": "made in house; host or cells: E. coli JM109, vector pRH1091", "experiment": "Substrate binding constant Kapp, method of Sligar", "from_the_text": "(§4) Binding of potential substrates was investigated by spectroscopic methods. […] This haem spin-state shift is accompanied by an increase in the haem reduction potential which enables the physiological electron-transfer partner putidaredoxin to reduce P-450cam and initiate the catalytic hydroxylation cycle^26. The haem spin state shift is thus a qualitative indication of the likelihood of molecules shown in Tables 1 and 2 being oxidised by the wild-type and mutant P-450cam enzymes.\n(§5) ^a Values are the average of two independent measurements using the\n(§6) method of Sligar (S. G. Sligar, Biochemistry, 1976, 15, 5399-5406). The\n(§7) value of Kapp is strongly dependent on the concentration of K^+\n(§8) in the buffer. At [K^+ ] > 150 mM, Kapp for camphor is 0.6 μM\n(§9) for both wildtype and Y96A. Data in this table were determined at [K^\n(§10) ] = 70 mM in phosphate buffer, pH 7.4, in order to avoid # salting out o\n(§11) substrates at higher ion concentrations."}, "Wild type P450cam [7]": {"biological_target": "T7, Wild type P450cam", "experiment": "Substrate binding constant Kapp, method of Sligar", "design": "made in house; host or cells: E. coli JM109, vector pRH1091", "from_the_text": "as §4, §5, §6, §7, §8, §9, §10, §11"}, "[8]": {"experiment": "Protein aggregation upon standing/storage", "format": "physicochemical", "from_the_text": "The C334A mutation has the obvious benefit of removing unwanted protein dimerisation, thus ensuring the presence of a single species in solution at all times. In addition, we noted a completely unexpected benefit of this mutation. […] Aggregation will also occur during turnover, especially at the higher P-450cam concentrations required in any economically viable industrial application in, for example, synthesis of organic molecules. […] Thus, the C334A mutation has beneficial effects in protein handling, storage, and increased catalyst lifetime."}, "[9]": {"experiment": "Protein dimerisation by anion exchange FPLC and gel filtration", "format": "physicochemical", "settings": "Resource Q FPLC and Superose 12 gel filtration; C334A even at high concentrations (0.1 mM range)", "from_the_text": "We concluded that wild-type P-450cam underwent dimerisation by intermolecular S--S disulphide bond formation between the surface cysteine 334 on two protein molecules."}, "[10]": {"settings": "-- = no shift, nd = not determined"}}, "note": "Substitutions are numbered along the chain they refer to. In names and notes the source's numbering stands. Like-named read-outs stand apart in the source and are kept apart here."}
{"molecule": "Oc1cccc2ccccc12", "note": "[1-ol]", "values": [{"measurement": "Products (%) WT", "setting": "P450cam WT; substrate naphthalene", "result": 100, "unit": "%"}, {"measurement": "Products (%) Y96L", "setting": "[1]; substrate naphthalene", "result": 100, "unit": "%"}, {"measurement": "Products (%) F87A-F96G-F193A", "setting": "[2]; substrate naphthalene", "result": 100, "unit": "%"}, {"measurement": "Products (%) Y96V", "setting": "[3]; substrate naphthalene", "result": 100, "unit": "%"}, {"measurement": "Products(%) Y96F", "setting": "[4]; substrate naphthalene", "result": 100, "unit": "%"}, {"measurement": "Products(%) Y96A", "setting": "[5]; substrate naphthalene", "result": 100, "unit": "%"}]}
{"molecule": "c1ccc2c(c1)-c1cccc3cccc-2c13", "note": "[Fluoranthene]", "values": [{"measurement": "Wild type Vs DTT", "setting": "Wild type P450cam [6]", "result": 5}, {"measurement": "Mutant Y96A Vs DTT", "setting": "P450cam Mutant Y96A", "result": 10}, {"measurement": "Mutant Y96A ΔSpin high/low", "setting": "P450cam Mutant Y96A", "result": 20}, {"measurement": "Total products WT", "setting": "P450cam WT; substrate fluoranthene", "result": 0, "unit": "area/10^6"}, {"measurement": "Total products F87A-F96G-F193A", "setting": "[2]; substrate fluoranthene", "result": 0.2, "unit": "area/10^6"}, {"measurement": "Total products Y96A", "setting": "[5]; substrate fluoranthene", "result": 2.7, "unit": "area/10^6"}]}
{"molecule": "Oc1ccc2ccccc2c1", "note": "[2-ol]", "values": [{"measurement": "Products (%) WT", "setting": "P450cam WT; substrate naphthalene", "result": 0, "unit": "%"}, {"measurement": "Products (%) Y96L", "setting": "[1]; substrate naphthalene", "result": 0, "unit": "%"}, {"measurement": "Products (%) F87A-F96G-F193A", "setting": "[2]; substrate naphthalene", "result": 0, "unit": "%"}, {"measurement": "Products (%) Y96V", "setting": "[3]; substrate naphthalene", "result": 0, "unit": "%"}, {"measurement": "Products(%) Y96F", "setting": "[4]; substrate naphthalene", "result": 0, "unit": "%"}, {"measurement": "Products(%) Y96A", "setting": "[5]; substrate naphthalene", "result": 0, "unit": "%"}]}
{"molecule": "c1ccc2c(c1)ccc1ccccc12", "note": "[Phenanthrene]", "values": [{"measurement": "Mutant Y96A Vs DTT", "setting": "P450cam Mutant Y96A", "result": 20}, {"measurement": "Mutant Y96A ΔSpin high/low", "setting": "P450cam Mutant Y96A; [10]", "result": 20}, {"measurement": "Total products WT", "setting": "P450cam WT; substrate phenanthrene", "result": 0.075, "unit": "area/10^6"}, {"measurement": "Total products Y96L", "setting": "[1]; substrate phenanthrene", "result": 2.8, "unit": "area/10^6"}, {"measurement": "Total products F87A-F96G-F193A", "setting": "[2]; substrate phenanthrene", "result": 0.065, "unit": "area/10^6"}, {"measurement": "Total products Y96V", "setting": "[3]; substrate phenanthrene", "result": 1.6, "unit": "area/10^6"}, {"measurement": "Total products Y96F", "setting": "[4]; substrate phenanthrene", "result": 4.5, "unit": "area/10^6"}, {"measurement": "Total products Y96A", "setting": "[5]; substrate phenanthrene", "result": 7.0, "unit": "area/10^6"}]}
{"molecule": "c1cc2ccc3cccc4ccc(c1)c2c34", "note": "[Pyrene]", "values": [{"measurement": "Total products WT", "setting": "P450cam WT; substrate pyrene", "result": 0, "unit": "area/10^6"}, {"measurement": "Total products Y96L", "setting": "[1]; substrate pyrene", "result": 1.5, "unit": "area/10^6"}, {"measurement": "Total products F87A-F96G-F193A", "setting": "[2]; substrate pyrene", "result": 0.02, "unit": "area/10^6"}, {"measurement": "Total products Y96V", "setting": "[3]; substrate pyrene", "result": 1.6, "unit": "area/10^6"}, {"measurement": "Total products Y96F", "setting": "[4]; substrate pyrene", "result": 1.5, "unit": "area/10^6"}, {"measurement": "Total products Y96A", "setting": "[5]; substrate pyrene", "result": 1.2, "unit": "area/10^6"}]}
{"molecule": "CC12CCC(CC1=O)C2(C)C", "note": "(single isomer, unassigned) [camphor]", "values": [{"measurement": "haem spin-state conversion on substrate binding", "setting": "Wild type P450cam [6]; Soret band 418 nm to 392 nm", "result": "fully converted the haem to the 5-co-ordinated, high-spin form"}, {"measurement": "Kd", "setting": "P-450cam mutant Y96A", "result": 600, "unit": "nM"}, {"measurement": "Kd", "setting": "Wild type P450cam [7]", "result": 600, "unit": "nM"}]}
{"molecule": "c1ccc2ccccc2c1", "note": "[Naphthalene]", "values": [{"measurement": "Mutant Y96A Vs DTT", "setting": "P450cam Mutant Y96A", "result": 20}, {"measurement": "Mutant Y96A ΔSpin high/low", "setting": "P450cam Mutant Y96A; [10]", "result": 15}, {"measurement": "Total products WT", "setting": "P450cam WT; substrate naphthalene", "result": 0.016, "unit": "area/10^5"}, {"measurement": "Total products Y96L", "setting": "[1]; substrate naphthalene", "result": 0.7, "unit": "area/10^5"}, {"measurement": "Total products F87A-F96G-F193A", "setting": "[2]; substrate naphthalene", "result": 0.1, "unit": "area/10^5"}, {"measurement": "Total products Y96V", "setting": "[3]; substrate naphthalene", "result": 1.4, "unit": "area/10^5"}, {"measurement": "Total products Y96F", "setting": "[4]; substrate naphthalene", "result": 2.4, "unit": "area/10^5"}, {"measurement": "Total products Y96A", "setting": "[5]; substrate naphthalene", "result": 1.1, "unit": "area/10^5"}]}
{"molecule": "B1", "values": [{"measurement": "dimerisation and aggregation upon storage", "setting": "[8]; storage at 4° C., and even in 50% glycerol solutions at -20° C.", "result": "dimerisation as well as aggregation"}, {"measurement": "presence of protein dimer", "setting": "[9]", "result": "dimer was detected"}]}
{"molecule": "B2", "values": [{"measurement": "aggregation", "setting": "[8]; mM concentrations at room temperature over a period of three days", "result": "did not show any evidence of aggregation"}, {"measurement": "presence of protein dimer", "setting": "[9]", "result": "no dimer was detected"}]}
